Laboratory results published in patent publication US20050064027A1, “Bioadhesive drug delivery system with enhanced gastric retention” (Spherics, Inc., priority 2001, published 2005).

Experiment: Release kinetics from multi-drug macrospheres
Type: physicochemical
Settings: salicylate in outer Eudragit RL 100 coating, acyclovir in core
From the text: Fluidized bed spraying of 5% RL 100-coated 40% Acyclovir (ACV) loaded cores with 25% sodium salicylate w/w in a 10% RL 100-coating was then used to produce multi-drug macrospheres.
The starting material was the product of Example 2 (5% w/w RL 100 coated 40% ACV cores and overcoat with 10% RL 100 coating containing 25% w/w sodium salicylate). Overcoating with a 10% w/w coating of RL100 containing 25% w/w salicylate was used to produce a biphasic drug system. Sodium salicylate should be quickly delivered followed by acyclovir release. A 176.0 g lot of beads, 40% w/w Acyclovir (1.4-2.36 mm) was used as the cores for the coatings.
The release kinetics of the two drugs from the macrospheres of Example 6 were then determined. FIG. 6 is a graph of release of acyclovir (ACV) and salicylate as a function of percent total acyclovir loading, over time (in hours), from macrospheres wherein the salicylate is encapsulated in an outer Eudragit® RL 100 coating and the acyclovir is encapsulated in the core. The outer drug loading is used to achieve rapid release (three hours) as compared to more long term release of the core drug (24 hours).

Row | Compound | time of release of drug from multi-drug macrospheres [h] | time of release of drug from multi-drug macrospheres (listed as salicylate)
1 | Nc1nc2c(ncn2COCCO)c(=O)[nH]1 [acyclovir] | 24 | 
2 | O=C([O-])c1ccccc1O.[Na+] [sodium salicylate] | ≤ 3 | three
